Marks after values point to notes of the source that are not given here.
Tests used:
[1] = test system: excised human cornea
Experimental: HPLC analysis was performed using Shimadzu Prominence UFLC, LC-20 system (Shimadzu, Japan) with a C18 column (Shimpack GIST column, 5 μm, 4.6×250 mm). The mobile phase used for besifloxacin analysis comprised of a mixture of 0.5% triethylamine solution (pH adjusted to 3.0 with 10% ortho-phosphoric acid) and acetonitrile (ACN) (74:26, v/v) (Costa et al, 2014). […] The injection volume was 50 μl for all the standards and test solutions. The flow rate and column temperature were maintained at 1.0 ml/min and 25° C., respectively. […] The amount of drug release was determined using respective standard calibration curves.
Excised human cornea was washed with PBS and mounted between donor and receptor compartments with epithelial side facing donor chamber. Receptor medium contained PBS maintained at 37±1° C. temperature using heated water circulator unit. The donor compartment was charged with 0.4% of drug containing polymeric hydrogel, standard drug solution or marketed formulation. Samples (300 μl) were withdrawn from the receptor chamber at predetermined time intervals including 0.5, 1, 2, 4, 6, 12 and 24 h. Samples were analyzed by HPLC method described above. […] Corneal permeation parameters were calculated from cumulative amount of drug permeated vs. time profile. Flux (J) was calculated from the slope of the linear portion of cumulative amount of permeated vs. time profile. Lag time (ttag) was calculated by extrapolating the linear portion of the curve to time axis. Permeability coefficient (Kp) was calculated using Equation 1.

[2] = test system: Staphylococcus aureus (ATCC 25923) infected human cornea; assay: Antibacterial activity in ex vivo corneal infection model; assay type: cell-based; conditions: infected cornea incubated 30 min with 0.4% formulation, then 24 h; 10^−7 dilution; n=3
Experimental: Human corneas were incubated in antibiotic free DMEM media overnight at 37° C. […] After 24 h incubation at 37° C., the infected corneas were washed again with PBS and used for further studies. The infection-free corneas were used as controls (Pinnock, et. al, 2017). Infected cornea was washed, and a metal ring was placed on the corneoscleral button, creating a watertight seal. Drug formulations (0.4%) were added to the center of the ring and incubated for 0.5 and 1.5 h at 37° C. Later, the corneas were washed thoroughly with PBS to remove the excess formulation and incubated for 24 h at 37° C. The cornea was then homogenized, and the resulting suspension was serially diluted. A 10 μl sample was spotted on agar plates at 10^−5, 10^−6, 10^−7, 10^−8 dilutions for colony enumeration. The colonies were counted visually and expressed in colony forming units (CFU) using Equation 2. The antibacterial activity of drugs loaded in hydrogel formulations was evaluated against Staphylococcus aureus (ATCC 25923) infected human cornea (n=3).

[3] = In vitro drug release study, Franz diffusion cell with dialysis membrane; assay type: physicochemical; conditions: PBS pH 7.4, 33±1° C., 2 mg drug in donor
Experimental: In vitro release of drugs was performed using Franz diffusion cell apparatus (Permegear Inc., USA). […] The donor compartment was loaded with 2 mg of drug containing polymeric hydrogel or standard drug solution or marketed formulation. […] Samples were analyzed using HPLC method described above.

Permeability coefficient [1] | Diffusion coefficient ([1]; human, 0.4 %) | Flux ([1]; human, 0.4 %) | Lag time ([1]; human, 0.4 %) | Corneal tissue concentration ([1]; human, 0.5 h, 0.4 %) | Cumulative amount permeated ([1]; human, 24 h, 0.4 %) | Cumulative amount permeated across cornea ([1]; human, 24 h, 0.4 %) | Time to 100% release / complete diffusion across the membrane [3] | SMILES | CFU/ml [2]
15.57 ×10^−3, cm^2/h | 21.34 ×10^−3 | 36.80 ± 13.99 μg/cm^2/h | 1.22 ± 0.39 h | 398±50 μg/gram of tissue | 1267.42 ± 37.56 μg/cm^2 | 1267 ± 38 µg | ≤ 10 h | N[C@@H]1CCCCN(c2c(F)cc3c(=O)c(C(=O)O)cn(C4CC4)c3c2Cl)C1 [Besifloxacin Std., besifloxacin] | 2.5 ± 0.82 CFU/ml (×10^9)
 |  |  |  |  |  |  |  | C[C@H]1COc2c(N3CCN(C)CC3)c(F)cc3c(=O)c(C(=O)O)cn1c23 [Levofloxacin Std., levofloxacin] | 8.3 ± 5.10 CFU/ml (×10^9)

— patent US12042500B2, “Mucoadhesive drug delivery system for ocular administration of fluoroquinolone antibiotics” (HYDERABAD EYE RESEARCH FOUNDATION, priority 2018, dated 2024)
